Measurements from patent US8562949B2, “Radiolabeled dihydrotetrabenazine derivatives and their use as imaging agents” (The Trustees of the University of Pennsylvania, priority 2006, dated 2013).

Experiments:
[1] = Baboon microPET imaging (FIG. 7); format: in vivo; settings: iv, 7 mCi, 70-90 min
[2] = Biodistribution in normal rats; format: in vivo; settings: IV
Protocol: While under isoflurane anesthesia, 0.15 mL of a 0.1% bovine serum albumin solution containing [^18F]tracers (10-20 μCi) were injected directly into the tail vein of ICR mice (22-25 g, male) The mice (n=3 for each time point) were sacrificed by cervical dislocation at indicated time points post injection. The organs of interest were removed and weighed, and the radioactivity was counted with an automatic gamma counter. The percentage dose per organ was calculated by a comparison of the tissue counts to suitably diluted aliquots of the injected material. Total activities of blood were calculated under the assumption that they were 7% of the total body weight. The % dose/g of samples was calculated by comparing the sample counts with the count of the diluted initial dose.
The ability of (+)-6b to target the pancreas was shown in normal rats. Using the methods described above under Example 6, the biodistribution of (+)-6b after IV injection in twelve normal rats was measured. For the organs studied, the pancreas had the highest % dose/gram within 30 minutes after injection. Also shown are data indicating distribution in the striatum, which is another area rich in VMAT-2 receptors.

[3] = test system: islet cell homogenates; assay: In vitro binding to islet cell homogenates (FIG. 8)

microPET uptake [1]: no indication of skull (bone) uptake
Biodistribution Blood ([2]; 2 min): 0.26 ± 0.03 % dose/g
Biodistribution Brain ([2]; 2 min): 0.71 ± 0.05 % dose/g
Biodistribution Cerebellum ([2]; 2 min): 0.63 ± 0.03 % dose/g
Biodistribution Cortex ([2]; 2 min): 0.65 ± 0.02 % dose/g
Biodistribution Heart ([2]; 2 min): 0.71 ± 0.07 % dose/g
Biodistribution Hippocampus ([2]; 2 min): 0.68 ± 0.07 % dose/g
Biodistribution Kidney ([2]; 2 min): 2.10 ± 0.17 % dose/g
Biodistribution Liver ([2]; 2 min): 3.53 ± 0.56 % dose/g
Biodistribution Lung ([2]; 2 min): 0.94 ± 0.04 % dose/g
Biodistribution Muscle ([2]; 2 min): 0.14 ± 0.03 % dose/g
Biodistribution Pancreas ([2]; 2 min): 2.51 ± 0.22 % dose/g
Biodistribution Skin ([2]; 2 min): 0.23 ± 0.05 % dose/g
Biodistribution Spleen ([2]; 2 min): 1.46 ± 0.15 % dose/g
Biodistribution Striatum ([2]; 2 min): 1.52 ± 0.20 % dose/g
Biodistribution Blood ([2]; 30 min): 0.23 ± 0.06 % dose/g
Biodistribution Brain ([2]; 30 min): 0.62 ± 0.08 % dose/g
Biodistribution Cerebellum ([2]; 30 min): 0.40 ± 0.04 % dose/g
Biodistribution Cortex ([2]; 30 min): 0.44 ± 0.06 % dose/g
Biodistribution Heart ([2]; 30 min): 0.41 ± 0.03 % dose/g
Biodistribution Hippocampus ([2]; 30 min): 0.61 ± 0.12 % dose/g
Biodistribution Kidney ([2]; 30 min): 1.06 ± 0.06 % dose/g
Biodistribution Liver ([2]; 30 min): 2.82 ± 0.24 % dose/g
Biodistribution Lung ([2]; 30 min): 0.69 ± 0.03 % dose/g
Biodistribution Muscle ([2]; 30 min): 0.17 ± 0.02 % dose/g
Biodistribution Pancreas ([2]; 30 min): 5.50 ± 0.97 % dose/g
Biodistribution Skin ([2]; 30 min): 0.28 ± 0.01 % dose/g
Biodistribution Spleen ([2]; 30 min): 1.03 ± 0.18 % dose/g
Biodistribution Striatum ([2]; 30 min): 2.25 ± 0.48 % dose/g
Biodistribution Blood ([2]; 60 min): 0.18 ± 0.02 % dose/g
Biodistribution Brain ([2]; 60 min): 0.42 ± 0.04 % dose/g
Biodistribution Cerebellum ([2]; 60 min): 0.28 ± 0.04 % dose/g
Biodistribution Cortex ([2]; 60 min): 0.27 ± 0.07 % dose/g
Biodistribution Heart ([2]; 60 min): 0.30 ± 0.10 % dose/g
Biodistribution Hippocampus ([2]; 60 min): 0.36 ± 0.08 % dose/g
Biodistribution Kidney ([2]; 60 min): 0.84 ± 0.09 % dose/g
Biodistribution Liver ([2]; 60 min): 2.47 ± 0.30 % dose/g
Biodistribution Lung ([2]; 60 min): 0.54 ± 0.14 % dose/g
Biodistribution Muscle ([2]; 60 min): 0.13 ± 0.01 % dose/g
Biodistribution Pancreas ([2]; 60 min): 4.98 ± 0.24 % dose/g
Biodistribution Skin ([2]; 60 min): 0.23 ± 0.04 % dose/g
Biodistribution Spleen ([2]; 60 min): 0.83 ± 0.18 % dose/g
Biodistribution Striatum ([2]; 60 min): 1.85 ± 0.26 % dose/g
Biodistribution Blood ([2]; 120 min): 0.12 ± 0.03 % dose/g
Biodistribution Brain ([2]; 120 min): 0.35 ± 0.02 % dose/g
Biodistribution Cerebellum ([2]; 120 min): 0.20 ± 0.01 % dose/g
Biodistribution Cortex ([2]; 120 min): 0.20 ± 0.06 % dose/g
Biodistribution Heart ([2]; 120 min): 0.22 ± 0.01 % dose/g
Biodistribution Hippocampus ([2]; 120 min): 0.23 ± 0.03 % dose/g
Biodistribution Kidney ([2]; 120 min): 0.55 ± 0.06 % dose/g
Biodistribution Liver ([2]; 120 min): 1.47 ± 0.13 % dose/g
Biodistribution Lung ([2]; 120 min): 0.35 ± 0.03 % dose/g
Biodistribution Muscle ([2]; 120 min): 0.10 ± 0.01 % dose/g
Biodistribution Pancreas ([2]; 120 min): 2.76 ± 0.61 % dose/g
Biodistribution Skin ([2]; 120 min): 0.16 ± 0.02 % dose/g
Biodistribution Spleen ([2]; 120 min): 0.48 ± 0.04 % dose/g
Biodistribution Striatum ([2]; 120 min): 1.42 ± 0.54 % dose/g
SMILES: COc1cc2c(cc1OCCC[18F])CCN1C[C@@H](CC(C)C)[C@H](O)C[C@H]21 [[^18F]-(+)-6b]
binding to islet cell homogenates [3]: specific and saturable
